{
  "source": "paper PMC10216263",
  "about": "“Favorable Preclinical Pharmacological Profile of a Novel Antimalarial Pyrrolizidinylmethyl Derivative of 4-amino-7-chloroquinoline with Potent In Vitro and In Vivo Activities” (Biomolecules, 2023)",
  "key": {"[1]": {"tested_on": "P. falciparum TM90C2A (CQ-R)", "assay": "In vitro antimalarial activity, [3H]-hypoxanthine incorporation (LSHTM)", "format": "cell-based", "settings": "Plasmodium falciparum, 72 h, [3H]-hypoxanthine incorporation, mean of 3 experiments, read-out: P. falciparum IC50 nM, TM90C2A (CQ-R)"}, "hERG K+ channel": {"molecular_target": "hERG K+ channel (Homo sapiens, UniProt Q12809)", "sequence (Q12809 whole entry)": "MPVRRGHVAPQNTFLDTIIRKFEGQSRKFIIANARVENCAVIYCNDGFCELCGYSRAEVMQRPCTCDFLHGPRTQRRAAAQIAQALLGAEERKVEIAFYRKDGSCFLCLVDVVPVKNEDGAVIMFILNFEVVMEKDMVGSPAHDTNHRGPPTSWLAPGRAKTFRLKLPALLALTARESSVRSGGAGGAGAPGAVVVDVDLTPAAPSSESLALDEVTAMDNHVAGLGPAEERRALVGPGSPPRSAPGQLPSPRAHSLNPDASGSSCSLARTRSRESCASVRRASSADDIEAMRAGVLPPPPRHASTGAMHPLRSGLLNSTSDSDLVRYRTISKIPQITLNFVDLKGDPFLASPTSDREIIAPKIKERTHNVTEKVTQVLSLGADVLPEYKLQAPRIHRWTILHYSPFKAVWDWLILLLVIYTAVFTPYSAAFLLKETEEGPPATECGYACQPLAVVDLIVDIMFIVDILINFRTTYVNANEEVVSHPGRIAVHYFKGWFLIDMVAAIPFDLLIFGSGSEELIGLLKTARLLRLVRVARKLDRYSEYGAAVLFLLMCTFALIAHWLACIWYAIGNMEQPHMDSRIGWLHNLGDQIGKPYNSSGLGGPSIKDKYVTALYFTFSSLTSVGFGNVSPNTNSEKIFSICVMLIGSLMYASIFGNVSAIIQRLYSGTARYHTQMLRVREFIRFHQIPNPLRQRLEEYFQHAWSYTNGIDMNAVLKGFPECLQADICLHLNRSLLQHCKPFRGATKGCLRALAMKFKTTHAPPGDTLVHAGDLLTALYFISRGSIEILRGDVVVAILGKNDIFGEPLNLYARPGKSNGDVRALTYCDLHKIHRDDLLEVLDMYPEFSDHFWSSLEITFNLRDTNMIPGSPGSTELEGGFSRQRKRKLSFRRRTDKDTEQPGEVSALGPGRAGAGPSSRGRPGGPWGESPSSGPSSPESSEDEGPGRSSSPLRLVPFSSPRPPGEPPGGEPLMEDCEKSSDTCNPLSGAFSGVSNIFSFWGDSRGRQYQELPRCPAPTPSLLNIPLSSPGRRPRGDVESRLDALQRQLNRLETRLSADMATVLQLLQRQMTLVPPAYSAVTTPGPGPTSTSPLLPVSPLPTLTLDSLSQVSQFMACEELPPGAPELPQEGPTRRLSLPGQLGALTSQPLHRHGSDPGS", "assay": "[3H]-astemizole binding assay in HEK293 cell membranes", "experimental": "Methods for hERG interaction\nMembranes were prepared from HEK293 cells stably transfected with the human ERG (ether-a-go-go related\ngene; U04270) from Cytomix.\nwas used as radioligand. Non-specific binding was evaluated in the presence of an excess of 10 µM cold\nThe concentration-response curve was performed in a range from 0.03 to 30 µM (seven"}, "[2]": {"assay": "Blood to plasma partitioning", "format": "in vitro ADME", "settings": "male, whole blood, human blood, up to 30 min", "protocol": "Plasma protein binding was performed via ultrafiltration (30,000 D cutoff, Amicon, Merck) with heparinized blood samples (male SD rats, Charles River Italy, and male Beagle dogs, Marshall Farms, Europe, Lyon, France) and fresh and frozen heparinized human blood samples collected from fasted healthy male subjects (at least two subjects for plasma samples), were supplied by AAI, Germany. MG3 final concentrations of 100, 300 and 1000 ng/mL were prepared using a 10 mg/mL stock solution while control samples at the same concentrations diluted in DPBS buffer (Dulbecco’s Phosphate Buffered Saline, Sigma-Aldrich) to evaluate the recovery. […] The percentage of bound drug (% Fbound) and of unbound drug (% Ffree) was determined using the following equations: % Fbound = [(Conc. Total–Conc. Free)/Conc. […] Total is the compound concentration determined in plasma and Conc. Free is the compound concentration determined in the ultrafiltrated samples. Results were expressed as % of binding and % of free fraction (single values and mean ± SD). […] Blood to plasma ratio was calculated as: Conc. in blood/Conc. in plasma; where, Conc. is the compound concentration determined in blood and in plasma at the same time of incubation."}, "[3]": {"tested_on": "P. falciparum field isolates", "assay": "Chemosensitivity assay on field isolates", "format": "cell-based", "protocol": "(§1) The 10 P. vivax and 10 P. falciparum isolates used in this study were obtained from Mae Sod District, Tak Province, Thailand. […] Isolates were collected in 5 mL lithium-heparinized tubes and sent to the laboratory within 5–6 h."}, "P. vivax field isolates": {"tested_on": "P. vivax field isolates", "assay": "Chemosensitivity assay on field isolates", "format": "cell-based", "protocol": "as §1"}, "[4]": {"assay": "7-day oral dose range finding (DRF) and systemic exposure in rats", "format": "in vivo, Sprague Dawley rats", "protocol": "Seven days oral DRF in rats and dog, and five days oral DRF in Non-Human Primates (NHP) were performed using Sprague Dawley rats (n = 3/time point) of both sexes, one male and one female dog Beagle (Marshall/Green Hill) and one male and one female monkeys/Cynomolgus (Noveprim Ltd., Mahebourg Mauritius,). MG3 was administered as oral suspension in 0.5% methocel in water (400 cP viscosity) at the following doses: 30, 60 and 120 mg/kg/day for 7 days (rat), 15 and 30 mg/kg/days for 7 days (dog) and 25, 50 and 75 mg/kg/day (NHP). No Observed Effects Levels (NOEL) were determined. Mortality, behavior, and general conditions were observed daily. Body weight was recorded pre-test, and on Days 1, 4 and 7. Food consumption was recorded from Days 1 to 4 and 4 to 7. Hematological and clinical chemistry examinations were performed on Day 8. All animals were sacrificed under anesthesia at the end of the treatment period on Day 8 of study. Post-mortem examinations included necropsy, collection, and histological examination performed of selected organs/tissues.\nSystemic exposure was measured in three additional rats/sex/group at different time-points up to 24 and 48 h after the treatment and on Days 1 and 7, respectively."}, "[5]": {"settings": "male, Sprague Dawley, rat, in vivo, po, 30 mg/kg/day"}},
  "note": "Read-outs that look alike come from different tables or passages of the source.",
  "data": [
    {"smiles": "Clc1ccc2c(NCC34CCCN3CCC4)ccnc2c1", "note": "[MG3, 7-Chloro-N-((hexahydro-1H-pyrrolizin-7a-yl)methyl)quinolin-4-amine]", "values": [
      {"measurement": "IC50", "setting": "[1]", "value": 14.4, "unit": "nM"},
      {"measurement": "Ki", "setting": "hERG K+ channel", "value": "553 ± 45", "unit": "nM"},
      {"measurement": "blood plasma ratio at 300 ng/mL", "setting": "[2]", "value": "~1"},
      {"measurement": "IC50", "setting": "[3]; Plasmodium falciparum, read-out: P. falciparum IC50 nM, Field Isolates, mean of 10 field isolates, Thai Burmese Border", "value": "< 15", "unit": "nM"},
      {"measurement": "IC50", "setting": "[3]; read-out: P. falciparum IC50 nM, Field Isolates, mean of 10 field isolates, Thai Burmese Border", "value": 20.9, "unit": "nM"},
      {"measurement": "IC50 lower than that of CQ", "setting": "P. vivax field isolates; P. vivax isolates", "value": 40, "unit": "%"},
      {"measurement": "IC50", "setting": "P. vivax field isolates; Plasmodium vivax, read-out: P. vivax IC50 nM, Field Isolates", "value": 50.3, "unit": "nM"},
      {"measurement": "mortality", "setting": "[4]; 30, 60, and 120 mg/kg/day oral, 7 days", "value": "no mortality occurred"},
      {"measurement": "MTD at 7 days", "setting": "[4]; both sexes, Sprague Dawley, rat, in vivo, oral, 7 days, rats, read-out: maximum tolerated dose (MTD)", "value": 120, "unit": "mg/kg/day"},
      {"measurement": "AUC(0-t)", "setting": "[4]; female, Sprague Dawley, rat, in vivo, po, 30 mg/kg/day, AUC0–24", "value": "2560 ± 650", "unit": "ng·h/mL"},
      {"measurement": "AUC(0-t)", "setting": "[4]; female, Sprague Dawley, rat, in vivo, po, 30 mg/kg/day, AUC0–48", "value": "3800 ± 1000", "unit": "ng·h/mL"},
      {"measurement": "Cmax", "setting": "[4]; female, Sprague Dawley, rat, in vivo, po, 30 mg/kg/day", "value": "149 ± 34", "unit": "ng/mL"},
      {"measurement": "AUC(0-t)", "setting": "[4]; female, Sprague Dawley, rat, in vivo, po, 60 mg/kg/day, AUC0–24", "value": "8630 ± 870", "unit": "ng·h/mL"},
      {"measurement": "AUC(0-t)", "setting": "[4]; female, Sprague Dawley, rat, in vivo, po, 60 mg/kg/day, AUC0–48", "value": "15000 ± 900", "unit": "ng·h/mL"},
      {"measurement": "Cmax", "setting": "[4]; female, Sprague Dawley, rat, in vivo, po, 60 mg/kg/day", "value": "646 ± 201", "unit": "ng/mL"},
      {"measurement": "AUC(0-t)", "setting": "[4]; female, Sprague Dawley, rat, in vivo, po, 120 mg/kg/day, AUC0–24", "value": "19400 ± 7500", "unit": "ng·h/mL"},
      {"measurement": "AUC(0-t)", "setting": "[4]; female, Sprague Dawley, rat, in vivo, po, 120 mg/kg/day, AUC0–48", "value": "29800 ± 9600", "unit": "ng·h/mL"},
      {"measurement": "Cmax", "setting": "[4]; female, Sprague Dawley, rat, in vivo, po, 120 mg/kg/day", "value": "1570 ± 270", "unit": "ng/mL"},
      {"measurement": "AUC(0-t)", "setting": "[4]; female, Sprague-Dawley, rat, in vivo, po, 30 mg/kg/day, AUC0–24", "value": "2530 ± 500", "unit": "ng·h/mL"},
      {"measurement": "AUC(0-t)", "setting": "[4]; female, Sprague-Dawley, rat, in vivo, po, 60 mg/kg/day, AUC0–24", "value": "4740 ± 770", "unit": "ng·h/mL"},
      {"measurement": "Cmax", "setting": "[4]; female, Sprague-Dawley, rat, in vivo, po, 60 mg/kg/day", "value": "259 ± 46", "unit": "ng/mL"},
      {"measurement": "AUC(0-t)", "setting": "[4]; female, Sprague-Dawley, rat, in vivo, po, 120 mg/kg/day, AUC0–24", "value": "5210 ± 1600", "unit": "ng·h/mL"},
      {"measurement": "Cmax", "setting": "[4]; female, Sprague-Dawley, rat, in vivo, po, 120 mg/kg/day", "value": "411 ± 288", "unit": "ng/mL"},
      {"measurement": "AUC0–24", "setting": "[4]; [5]", "value": "1880 ± 190", "unit": "ng·h/mL"},
      {"measurement": "AUC(0-t)", "setting": "[4]; male, Sprague Dawley, rat, in vivo, po, 30 mg/kg/day, AUC0–24", "value": "1880 ± 380", "unit": "ng·h/mL"},
      {"measurement": "AUC(0-t)", "setting": "[4]; male, Sprague Dawley, rat, in vivo, po, 30 mg/kg/day, AUC0–48", "value": "2460 ± 550", "unit": "ng·h/mL"},
      {"measurement": "Cmax", "setting": "[4]; [5]", "value": "140 ± 30", "unit": "ng/mL"},
      {"measurement": "AUC(0-t)", "setting": "[4]; male, Sprague Dawley, rat, in vivo, po, 60 mg/kg/day, AUC0–24", "value": "5090 ± 450", "unit": "ng·h/mL"},
      {"measurement": "AUC(0-t)", "setting": "[4]; male, Sprague Dawley, rat, in vivo, po, 60 mg/kg/day, AUC0–48", "value": "7330 ± 310", "unit": "ng·h/mL"},
      {"measurement": "Cmax", "setting": "[4]; male, Sprague Dawley, rat, in vivo, po, 60 mg/kg/day", "value": "321 ± 50", "unit": "ng/mL"},
      {"measurement": "AUC(0-t)", "setting": "[4]; male, Sprague Dawley, rat, in vivo, po, 120 mg/kg/day, AUC0–24", "value": "17400 ± 3200", "unit": "ng·h/mL"},
      {"measurement": "AUC(0-t)", "setting": "[4]; male, Sprague Dawley, rat, in vivo, po, 120 mg/kg/day, AUC0–48", "value": "27500 ± 3900", "unit": "ng·h/mL"},
      {"measurement": "Cmax", "setting": "[4]; male, Sprague Dawley, rat, in vivo, po, 120 mg/kg/day", "value": "1090 ± 260", "unit": "ng/mL"},
      {"measurement": "AUC(0-t)", "setting": "[4]; male, Sprague-Dawley, rat, in vivo, po, 60 mg/kg/day, AUC0–24", "value": "3530 ± 180", "unit": "ng·h/mL"},
      {"measurement": "Cmax", "setting": "[4]; male, Sprague-Dawley, rat, in vivo, po, 60 mg/kg/day", "value": "220 ± 10", "unit": "ng/mL"},
      {"measurement": "AUC(0-t)", "setting": "[4]; male, Sprague-Dawley, rat, in vivo, po, 120 mg/kg/day, AUC0–24", "value": "3840 ± 700", "unit": "ng·h/mL"},
      {"measurement": "Cmax", "setting": "[4]; male, Sprague-Dawley, rat, in vivo, po, 120 mg/kg/day", "value": "209 ± 49", "unit": "ng/mL"},
      {"measurement": "food consumption", "setting": "[4]; rat, in vivo", "value": "Minimal to moderate decrease in food consumption"},
      {"measurement": "clinical chemistry on Day 8", "setting": "[4]; rat, in vivo, 120 mg/kg/day", "value": "slight to moderate increase in ALT and AST"},
      {"measurement": "systemic exposure in females higher than in males", "setting": "[4]; rat, in vivo, po", "value": "about two-fold"},
      {"measurement": "mortality and liver toxicity", "setting": "[4]; up to 60 mg/kg, 7-day oral toxicity study", "value": "no mortality and no clinical evidence of liver toxicity"}
    ]}
  ]
}
